Experimental data: the CheMixHub viscosity set

Assay: xn = mol fraction of the nth substance listed

C=Cc1ccccc1 + CCCCCCC
viscosity [mPa·s], 101.33 kPa
Settings | x1 = 0.1018 | x1 = 0.202 | x1 = 0.2988 | x1 = 0.3984 | x1 = 0.4989 | x1 = 0.5997 | x1 = 0.6992 | x1 = 0.8006 | x1 = 0.8979
298.15 K | 0.398 | 0.412 | 0.427 | 0.448 | 0.471 | 0.5 | 0.536 | 0.581 | 0.638
303.15 K | 0.379 | 0.393 | 0.406 | 0.425 | 0.445 | 0.473 | 0.508 | 0.55 | 0.599
308.15 K | 0.36 | 0.372 | 0.386 | 0.405 | 0.423 | 0.45 | 0.481 | 0.519 | 0.565

CCCCCCCCO + CCCCCCC
viscosity [mPa·s], 101.33 kPa
Settings | 298.15 K | 308.15 K
x1 = 0.0448 | 0.4411 | 0.3932
x1 = 0.0922 | 0.4999 | 0.4375
x1 = 0.1826 | 0.6375 | 0.5457
x1 = 0.278 | 0.8198 | 0.6942
x1 = 0.3705 | 1.072 | 0.8964
x1 = 0.469 | 1.464 | 1.149
x1 = 0.5664 | 1.902 | 1.594
x1 = 0.6697 | 2.7 | 2.213
x1 = 0.7784 | 3.885 | 3.021
x1 = 0.8336 | 4.545 | 3.466
x1 = 0.8844 | 5.124 | 3.885
x1 = 0.9381 | 6.024 | 4.399

BrC(Br)Br + CCCCCCC(C)O
viscosity [mPa·s], 101.3 kPa
Settings | x1 = 0.104 | x1 = 0.199 | x1 = 0.3 | x1 = 0.403 | x1 = 0.502 | x1 = 0.603 | x1 = 0.704 | x1 = 0.801 | x1 = 0.899
298.15 K | 5.244 | 4.606 | 3.91 | 3.391 | 2.965 | 2.623 | 2.337 | 2.123 | 1.969
303.15 K | 4.336 | 3.855 | 3.348 | 2.937 | 2.594 | 2.335 | 2.104 | 1.943 | 1.83
308.15 K | 3.625 | 3.274 | 2.894 | 2.566 | 2.288 | 2.084 | 1.913 | 1.785 | 1.698

C=Cc1ccccc1 + CCCCCCCC
Settings | viscosity [mPa·s]
293.15 K, 101 kPa, x1 = 0.622 | 0.585
298.15 K, 101 kPa, x1 = 0.622 | 0.55
298.15 K, 101.33 kPa, x1 = 0.1009 | 0.512
298.15 K, 101.33 kPa, x1 = 0.1995 | 0.514
298.15 K, 101.33 kPa, x1 = 0.331 | 0.516
298.15 K, 101.33 kPa, x1 = 0.3985 | 0.522
298.15 K, 101.33 kPa, x1 = 0.4971 | 0.535
298.15 K, 101.33 kPa, x1 = 0.5989 | 0.558
298.15 K, 101.33 kPa, x1 = 0.7005 | 0.587
298.15 K, 101.33 kPa, x1 = 0.8009 | 0.616
298.15 K, 101.33 kPa, x1 = 0.8988 | 0.657
303.15 K, 101 kPa, x1 = 0.622 | 0.52
303.15 K, 101.33 kPa, x1 = 0.1009 | 0.481
303.15 K, 101.33 kPa, x1 = 0.1995 | 0.485
303.15 K, 101.33 kPa, x1 = 0.331 | 0.488
303.15 K, 101.33 kPa, x1 = 0.3985 | 0.495
303.15 K, 101.33 kPa, x1 = 0.4971 | 0.5
303.15 K, 101.33 kPa, x1 = 0.5989 | 0.524
303.15 K, 101.33 kPa, x1 = 0.7005 | 0.552
303.15 K, 101.33 kPa, x1 = 0.8009 | 0.575
303.15 K, 101.33 kPa, x1 = 0.8988 | 0.617
308.15 K, 101.33 kPa, x1 = 0.1009 | 0.461
308.15 K, 101.33 kPa, x1 = 0.1995 | 0.462
308.15 K, 101.33 kPa, x1 = 0.331 | 0.464
308.15 K, 101.33 kPa, x1 = 0.3985 | 0.467
308.15 K, 101.33 kPa, x1 = 0.4971 | 0.476
308.15 K, 101.33 kPa, x1 = 0.5989 | 0.495
308.15 K, 101.33 kPa, x1 = 0.7005 | 0.521
308.15 K, 101.33 kPa, x1 = 0.8009 | 0.55
308.15 K, 101.33 kPa, x1 = 0.8988 | 0.581
313.15 K, 101 kPa, x1 = 0.3202 | 0.43
313.15 K, 101 kPa, x1 = 0.622 | 0.465
323.15 K, 101 kPa, x1 = 0.622 | 0.418
323.15 K, 101 kPa, x1 = 0.8145 | 0.462
323.15 K, 101 kPa, x1 = 0.9081 | 0.479

CCCCCCCCO + CCCCCCCC
298.15 K, 101.33 kPa
Settings | viscosity [mPa·s]
x1 = 0.0015 | 0.491
x2 = 0.0566 | 6.369
x2 = 0.1294 | 5.058
x2 = 0.2321 | 3.637
x2 = 0.353 | 2.469
x2 = 0.4724 | 1.705
x2 = 0.527 | 1.452
x2 = 0.6297 | 1.094
x2 = 0.778 | 0.764
x2 = 0.8294 | 0.683
x2 = 0.9163 | 0.572
